Legend:
VEGFR2 (KDR) = molecular target: T1, VEGFR2 (KDR) (Homo sapiens, UniProt P35968); assay: In vitro receptor tyrosine kinase assay (VEGF receptor KDR), DELFIA; assay type: biochemical; conditions: recombinant GST-VEGFR2 806-1356, ATP 0.6 uM; read-out: VEGFR IC50UM
T1 construct: made in house; host or cells: Sf9 cells (Spodoptera frugiperda), baculovirus
Description: In Vitro Receptor Tyrosine Kinase Assay (VEGF Receptor KDR)
This test measures the ability of compounds to inhibit the enzymatic activity of recombinant human VEGF receptor enzymatic activity.
A 1.6-kb cDNA corresponding to the catalytic domain of VEGFR2 (KDR) (Genbank accession number AF035121 amino acid 806 to 1356) is cloned into the Pst I site of the pDEST20 Gateway vector (Invitrogen) for the production of a GST-tagged version of that enzyme. This construct is used to generate recombinant baculovirus using the Bac-to-Bac™ system according to the manufacturer's instructions (Invitrogen).
The GST-VEGFR2806-1356 protein is expressed in Sf9 cells (Spodoptera frugiperda) upon infection with recombinant baculovirus construct. Briefly, Sf9 cells grown in suspension and maintained in serum-free medium (Sf900 II supplemented with gentamycin) at a cell density of about 2×10^6 cells/ml are infected with the above-mentioned viruses at a multiplicity of infection (MOI) of 0.1 during 72 hours at 27° C. with agitation at 120 rpm on a rotary shaker. Infected cells are harvested by centrifugation at 398 g for 15 min. Cell pellets are frozen at −80° C. until purification is performed.
All steps described in cell extraction and purification are performed at 4° C. Frozen Sf9 cell pellets infected with the GST-VEGFR2806-1356 recombinant baculovirus are thawed and gently resuspended in Buffer A (PBS pH 7.3 supplemented with 1 μg/ml pepstatin, 2 μg/ml Aprotinin and leupeptin, 50 μg/ml PMSF, 50 μg/ml TLCK and 10 μM E64 and 0.5 mM DTT) using 3 ml of buffer per gram of cells. Suspension is Dounce homogenized and 1% Triton X-100 is added to the homogenate after which it is centrifuged at 22500 g, 30 min., 4° C. The supernatant (cell extract) is used as starting material for purification of GST-VEGFR2806-1356.
The supernatant is loaded onto a GST-agarose column (Sigma) equilibrated with PBS pH 7.3. Following a four column volume (CV) wash with PBS pH 7.3+1% Triton X-100 and 4 CV wash with buffer B (50 mM Tris pH 8.0, 20% glycerol and 100 mM NaCl), bound proteins are step eluted with 5 CV of buffer B supplemented with 5 mM DTT and 15 mM glutathion. GST-VEGFR2806-1356 enriched fractions from this chromatography step are pooled based on U.V. trace i.e. fractions with high O.D.280. Final GST-VEGFR2806-1356 protein preparations concentrations are about 0.7 mg/ml with purity approximating 70%. Purified GST-VEGFR2806-1356 protein stocks are aliquoted and frozen at −80° C. prior to use in enzymatic assay.
Inhibition of VEGFR/KDR is measured in a DELFIA™ assay (Perkin Elmer). The substrate poly(Glu4,Tyr) is immobilized onto black high-binding polystyrene 96-well plates. The coated plates are washed and stored at 4° C. During the assay, the enzyme is pre-incubated with inhibitor and Mg-ATP on ice in polypropylene 96-well plates for 4 minutes, and then transferred to the coated plates. The subsequent kinase reaction takes place at 30° C. for 10-30 minutes. ATP concentrations in the assay are 0.6 uM for VEGFR/KDR (2× the Km). Enzyme concentration is 5 nM. After incubation, the kinase reactions are quenched with EDTA and the plates are washed. Phosphorylated product is detected by incubation with Europium-labeled anti-phosphotyrosine MoAb. After washing the plates, bound MoAb is detected by time-resolved fluorescence in a Gemini SpectraMax reader (Molecular Devices). Compounds are evaluated over a range of concentrations, and IC50 values (concentration of compounds giving 50% inhibition of enzymatic activity) are determined.

[1] = system: laser-induced choroidal neovascularization (CNV); assay: In vivo choroidal neovascularization (CNV) model; parameters: species or system rat; conditions: Rattus norvegicus, 240 h; Brown-Norway rats, dose 3 nmol/eye, injection on Day 3, CNV area on Day 10; read-out: Inhibition of CNV Progression (%)
Description: In Vivo Choroidal Neovascularization (CNV) Model This test measures the capacity of compounds to inhibit CNV progression. CNV is the main cause of severe vision loss in patients suffering from age-related macular degeneration (AMD). Male Brown-Norway rats (Charles River Japan Co., Ltd.) were used in these studies. Rats were anesthetized by intraperitoneal injection of pentobarbital, and the right pupil was dilated with 0.5% tropicamide and 0.5% phenylephrine hydrochloride. The right eye received 6 laser burns between retinal vessels using a slit lamp delivery system of Green laser Photocoagulator (Nidex Inc., Japan), and microscope slide glass with 10 mg/mL hyaluronic acid (SIGMA) used as a contact lens. The laser power was 200 mW for 0.1 second and spot diameter was 100 μm. At the time of laser burn, bubble production was observed; which is an indication of rupture of Bruch's membrane which is important for CNV generation. After animals were anesthetized, and the right pupil dilated (as mentioned above), the right eye of the animal received the compound or vehicle by an injection (3 μL/eye) at doses of 3 or 10 nmol/eye on Day 3. The compounds were dissolved or suspended in CBS, PBS, or other adequate vehicles before injection. On Day 10, the animals were anesthetized with ether, and high molecular weight fluorescein isothiocyanate (FITC)-dextran (SIGMA, 2×10^6 MW) was injected via a tail vein (20 mg/rat). About 30 min after FITC-dextran injection, animals were euthanized by ether or carbon dioxide, and the eyes were removed and fixed with 10% formaline neutral buffer solution. After over 1 hour of fixation, RPE-choroid-sclera flat mounts were obtained by removing cornea, lens and retina from the eyeballs. The flat mounts were mounted in 50% glycerol on a microscope slide, and the portion burned by laser was photographed using a fluorescence microscope (Nikon Corporation, excitation filter: 465-495 nm, absorption filter: 515-555 nm). The CNV area was obtained by measurement of hyper-fluorescence area observed on the photograph using Scion image. The average CNV area of 6 burns was used as an individual value of CNV area, and the average CNV area of compound treated group was compared with that of the vehicle-treated group.

T1 sequence (P35968 806-1356): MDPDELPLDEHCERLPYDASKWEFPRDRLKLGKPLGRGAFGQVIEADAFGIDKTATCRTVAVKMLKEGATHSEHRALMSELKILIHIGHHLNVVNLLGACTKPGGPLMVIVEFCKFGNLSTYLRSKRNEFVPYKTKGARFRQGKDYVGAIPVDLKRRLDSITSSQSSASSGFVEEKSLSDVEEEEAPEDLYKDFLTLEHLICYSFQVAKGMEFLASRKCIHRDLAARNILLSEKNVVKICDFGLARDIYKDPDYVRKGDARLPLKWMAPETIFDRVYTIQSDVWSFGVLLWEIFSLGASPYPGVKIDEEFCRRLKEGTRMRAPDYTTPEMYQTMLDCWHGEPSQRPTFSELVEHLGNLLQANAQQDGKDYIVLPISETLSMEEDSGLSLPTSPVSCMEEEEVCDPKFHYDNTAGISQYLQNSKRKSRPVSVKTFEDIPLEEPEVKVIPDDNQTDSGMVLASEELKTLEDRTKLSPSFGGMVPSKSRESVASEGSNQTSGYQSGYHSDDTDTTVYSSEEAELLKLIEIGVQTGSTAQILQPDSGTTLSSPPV

Structure (SMILES)	IC50 (VEGFR2 (KDR))	inhibition in vivo at 3 nmol/eye [1]
O=C(Nc1ccc(Oc2ccnc3cc(-c4ccc(CN5CCOCCOCCOCCOCCOCC5)cn4)sc23)c(F)c1)NC1CC1 [Compound 8, 1-(4-(2-(5-((1,4,7,10,13-Pentaoxa-16-azacyclooctadecan-16-yl)methyl)pyridin-2-yl)thieno[3,2-b]pyridin-7-yloxy)-3-fluorophenyl)-3-cyclopropylurea]	13 nM	
CC(C)[C@H](N)C(=O)N[C@H](C(=O)OCC(=O)N1CCN(Cc2ccc(-c3cc4nccc(Oc5ccc(NC(=O)NC6CC6)cc5F)c4s3)nc2)CC1)C(C)C [Compound 12, (S)-2-(4-((6-(7-(4-(3-Cyclopropylureido)-2-fluorophenoxy)thieno[3,2-b]pyridin-2-yl)pyridin-3-yl)methyl)piperazin-1-yl)-2-oxoethyl 2-((S)-2-amino-3-methylbutanamido)-3-methylbutanoate]	13 nM	47%
COCCOCCOCCOCCOCCC(=O)OCC(=O)N1CCN(Cc2ccc(-c3cc4nccc(Oc5ccc(NC(=O)NC6CC6)cc5F)c4s3)nc2)CC1 [Compound 19]	20 nM	
COCCOCCOCCOCCNC1CCN(Cc2ccc(-c3cc4nccc(Oc5ccc(NC(=O)NC6CC6)cc5F)c4s3)nc2)CC1 [Compound 22, 1-(4-(2-(5-((4-(2,5,8,11-Tetraoxamidecan-13-ylamino)piperidin-1-yl)methyl)pyridin-2-yl)thieno[3,2-b]pyridin-7-yloxy)-3-fluorophenyl)-3-cyclopropylurea]	13 nM	
CCNC(=O)N(CCOCCOCCOCCOC)C1CCN(Cc2ccc(-c3cc4nccc(Oc5ccc(NC(=O)NC6CC6)cc5F)c4s3)nc2)CC1 [Compound 23, 1-(4-(2-(5-((4-Ethylaminocarbonyl-(2,5,8,11-tetraoxamidecan-13-ylamino)piperidin-1-yl)methyl)pyridin-2-yl)thieno[3,2-b]pyridin-7-yloxy)-3-fluorophenyl)-3-cyclopropylurea]	18 nM	44.2%
COCCOCCOCCOCCN(C(=O)CO)C1CCN(Cc2ccc(-c3cc4nccc(Oc5ccc(NC(=O)NC6CC6)cc5F)c4s3)nc2)CC1 [Compound 24]	15 nM	28.9%
COCCOCCOCCOCCN(C(=O)C(F)(F)F)C1CCN(Cc2ccc(-c3cc4nccc(Oc5ccc(NC(=O)NC6CC6)cc5F)c4s3)nc2)CC1 [Compound 25]	53 nM	20.9%
COCCOCCOCCOCCN(C1CCN(Cc2ccc(-c3cc4nccc(Oc5ccc(NC(=O)NC6CC6)cc5F)c4s3)nc2)CC1)S(C)(=O)=O [Compound 26]	13 nM	
COCCOCCOCCOCCOCCn1cc(-c2cc3nccc(Oc4ccc(NC(=O)NC5CC5)cc4F)c3s2)nn1 [Compound 33, 1-(4-(2-(1-(2,5,8,11,14-Pentaoxahexadecan-16-yl)-1H-1,2,3-triazol-4-yl)thieno[3,2-b]pyridin-7-yloxy)-3-fluorophenyl)-3-cyclopropylurea]	107 nM	
COCCOCCOCCOCCOc1ccccc1NCc1ccc(-c2cc3nccc(Oc4ccc(NC(=O)NC5CC5)cc4F)c3s2)nc1 [Compound 38, 1-(4-(2-(5-((2-(2,5,8,11-Tetraoxamidecan-13-yloxy)phenylamino)methyl)pyridin-2-yl)thieno[3,2-b]pyridin-7-yloxy)-3-fluorophenyl)-3-cyclopropylurea]	24 nM	
COCCOCCOCCOCCOc1cccc(NCc2ccc(-c3cc4nccc(Oc5ccc(NC(=O)NC6CC6)cc5F)c4s3)nc2)c1 [Compound 40]	24 nM	
COCCOCCOCCOCC(=O)N1CCN(Cc2ccc(-c3cc4nccc(Oc5ccc(NC(=O)NC6CC6)cc5F)c4s3)nc2)CC1 [Compound 47]	12 nM	
COCCOCCOCCOCCOCC(=O)N1CCN(Cc2ccc(-c3cc4nccc(Oc5ccc(NC(=O)NC6CC6)cc5F)c4s3)nc2)CC1 [Compound 48]	13 nM	
COCCOCCOCCOCCOCCOC(=O)N1CCN(Cc2ccc(-c3cc4nccc(Oc5ccc(NC(=O)NC6CC6)cc5F)c4s3)nc2)CC1 [Compound 52]	13 nM	

Now those with a lower IC50 (VEGFR2 (KDR)), led by results:

IC50 (VEGFR2 (KDR))	Structure (SMILES)	inhibition in vivo at 3 nmol/eye [1]
11 nM	COCCOCCOCCOCCC(=O)N1CCN(Cc2ccc(-c3cc4nccc(Oc5ccc(NC(=O)NC6CC6)cc5F)c4s3)nc2)CC1 [Compound 46, 1-(4-(2-(5-((4-2,5,8,11-Tetraoxatetradecanepiperazin-1-yl)methyl)pyridin-2-yl)thieno[3,2-b]pyridin-7-yloxy)-3-fluorophenyl)-3-cyclopropylurea]	24.8%
10 nM	CC(C)[C@H](NC(=O)CN)C(=O)OCC(=O)N1CCN(Cc2ccc(-c3cc4nccc(Oc5ccc(NC(=O)NC6CC6)cc5F)c4s3)nc2)CC1 [Compound 13]	41.6%
6 nM	COCCOCCOCCOCCC(=O)OCC(=O)N1CCN(Cc2ccc(-c3cc4nccc(Oc5ccc(NC(=O)NC6CC6)cc5F)c4s3)nc2)CC1 [Compound 18]	42.9%
3 nM	COCCOCCOCC(=O)N1CC(N(CC(=O)O)Cc2ccc(-c3cc4nccc(Oc5ccc(NC(=O)NC6CC6)cc5F)c4s3)nc2)C1 [Compound 45, 2-(((6-(7-(4-(3-Cyclopropylureido)-2-fluorophenoxy)thieno[3,2-b]pyridin-2-yl)pyridin-3-yl)methyl)(1-(2-(2-(2-methoxyethoxy)ethoxy)acetyl)azetidin-3-yl)amino)acetic acid]	
2 nM	COCCOCCOCCNC(=O)N1CCN(Cc2ccc(-c3cc4nccc(Oc5ccc(NC(=O)NC6CC6)cc5F)c4s3)nc2)CC1 [Compound 54, 4-((6-(7-(4-(3-Cyclopropylureido)-2-fluorophenoxy)thieno[3,2-b]pyridin-2-yl)pyridin-3-yl)methyl)-N-(2-(2-(2-methoxyethoxy)ethoxy)ethyl)piperazine-1-carboxamide]	
2 nM	COCCOCCOCCOCCNC(=O)N1CCN(Cc2ccc(-c3cc4nccc(Oc5ccc(NC(=O)NC6CC6)cc5F)c4s3)nc2)CC1 [Compound 55]	
2 nM	COCCOCCOCCOCCOCCNC(=O)N1CCN(Cc2ccc(-c3cc4nccc(Oc5ccc(NC(=O)NC6CC6)cc5F)c4s3)nc2)CC1 [Compound 56]	

Source: patent US20130096088A1, “Inhibitors of Protein Tyrosine Kinase Activity” (METHYLGENE INC., priority 2011, published 2013)
